# Data from PMC6429262, “Design and Synthesis of Novel Anti-Proliferative Emodin Derivatives and Studies on their Cell Cycle Arrest, Apoptosis Pathway and Migration” (Molecules, 2019).
# Legend:
# HepG2 cells [1] = test: Apoptosis analysis, annexin V-FITC/PI flow cytometry; type: cell-based, human; conditions: for Apoptosis percentage, Early apoptosis / Apoptosis percentage, Late apoptosis / Apoptosis percentage, Overall apoptosis: mean ± SD of three experiments; for percentage of apoptotic cells: Figure 3A
# Procedure: In order to verify whether compound 7a is able to induce apoptosis in HepG2 cells, we utilized FITC-Annexin V/PI staining and estimated the percentage of apoptotic cells by flow cytometry. We noted a concentration-dependent increase in the percentage of apoptotic cells when the cells were treated with compound 7a for 48 h at concentrations 2.5, 5, and 10 μM. […] Apoptosis was discriminated with the annexin V-FITC/PI test. Cells were seeded at 2 × 10^5/well in 10% FBS-DMEM into 6-well plates and treated with compounds 7a for 48 h. The cells were washed twice with cold phosphate buffered saline (PBS) and then resuspend in 1× Binding Buffer (0.1M Hepes/NaOH (pH 7.4), 1.4M NaCl, 25 mM CaCl2)) at a concentration of 1 × 10^5 cells/mL. 100 μL of the solution (1 × 10^4 cells) was transferred to a 5 mL culture tube, and 5 μL of FITC Annexin V (BD, Pharmingen, Franklin Lakes, NJ, USA) and 5 μL PI were added to each tube. The cells were gently resuspended by vortexing, and then were incubated for 30 min at RT (25 °C) in the dark. After incubation, 200 μL PBS was added to each tube. The analysis was performed with the system software (CellQuest; BD Biosciences, Franklin Lakes, NJ, USA). Analysis is as follows: lower left quadrant, viable cells (Annexin V−/PI−); lower right quadrant, early apoptotic cells (Annexin V+/PI−); upper right quadrant, late apoptotic cells (annexin V+/PI+); upper left quadrant, necrotic cells (annexin V−/PI+). The percentage of cells positive for PI and Annexin V-FITC was reported inside the quadrants.
# Bcl-2 = test: Western blot, Bcl-2; type: cell-based, human; conditions: 48 h
# Procedure: (§1) Total cell lysates from cultured HepG2 cells treated with different concentrations of compound 7a for 48 h were obtained by lysing the cells in ice-cold RIPA buffer (1 PBS, 1% NP-40, 0.5% sodium deoxycholate and 0.1% SDS) containing […] PMSF, 5 mg/mL aprotinin, 5 mg/mL leupeptin, 5 mg/mL pepstatin and […] NaF. After centrifugation at 12,000 rpm for 10 min, the protein in the supernatant was quantified by the Bradford method (BIO-RAD, Hercules, CA, USA) using a Multimode Varioscan instrument (Thermo Fischer Scientific, Waltham, MA, USA). Twenty micrograms of protein per lane was applied in 12% SDS polyacrylamide gel. After electrophoresis, the protein was transferred to a polyvinylidine difluoride membrane (Amersham Biosciences, Marlborough, MA, USA). The membrane was blocked at room temperature for 2 h in TBST containing 5% blocking powder (Santa Cruz, Dallas, TX, USA). The membrane was washed with TBST for 5 min, and the primary antibody was added and incubated at 4 °C overnight (O/N). Bax (5023, CST, Danvers, MA, USA), Bcl-2 (15071, CST), cytochrome c (4280, CST), procaspase-9 (AB138412, Abcam, Cambridge, MA, USA), procaspase-3 (AB32150, Abcam), caspase-3 (66470-2-lg, Proteintech Group, Rosemont, IL, USA) and GAPDH (AB8245, Abcam) antibodies were employed. After three TBST washes, the membrane was incubated with the corresponding horseradish peroxidase-labeled secondary antibody (1:5000) (Santa Cruz) at room temperature for 2 h. Membranes were washed with TBST for 15 min five times and the protein blots were visualized with chemiluminescence reagent (Thermo Fischer Scientific Ltd.). The X-ray films were developed with a developer and fixed with fixer solution. The grey levels were analyzed using ImageQuant LAS 4000 system (GE, Marlborough, MA, USA).
# L02 cells = test: Cytotoxic activity against human normal liver cells (L02); type: cell-based
# cytochrome c = test: Western blot, cytochrome c; type: cell-based, human; conditions: 48 h
# Procedure: as §1
# procaspase-9 = test: Western blot, procaspase-9; type: cell-based, human; conditions: 48 h
# Procedure: as §1
# HepG2 cells [2] = test: CellTiter-Glo Luminescent Cell Viability Assay, HepG2; type: cell-based, human; conditions: for IC50: 48 h, mean of three independent experiments
# Procedure: The in vitro anti-proliferative activities of all the novel synthesized compounds were evaluated against HepG2 cells and MCF-7 cells by CellTiter-Glo® Luminescent Cell Viability Assay, using paclitaxel (a clinically used drug) as a positive control. Emodin (1) and compound 2 were also included for comparison.
# HepG2 cells and MCF-7 cells were purchased from American Type Culture Collection (ATCC, Manassas, VA, USA). Cells were cultured in T75 flask (430641, Corning, New York, NY, USA), supplemented with high-glucose DMEM medium (Dulbecco’s modified Eagle’s medium, 11965-092, Gibco, New York, NY, USA) containing 10% Fetal bovine serum (FBS) and 1% penicillin (100 units/mL)-streptomycin (100 µg/mL) in a humidified incubator at 37 °C under 5% CO2 and 95% relative humidity (RH) atmosphere. The cells were harvested for metabolomics experiments using cell scrapers.
# HepG2 cells and MCF-7 cells in 40 µL DMEM supplemented with 10% FBS were seeded at a density of 500 cells/well in 384-well cell culture plate (3570, Corning), respectively. After 24 h, the medium was substituted with fresh medium containing various sample solutions in DMSO (0.5%, v/v) at a dose range of 0.14–100 µM with 3-fold serial dilutions, and cells were cultured for another 48 h. Cells were cultured in medium without samples but 0.5% DMSO served as a control. All measurements were determined in triplicate for each treatment. After the sample treatment for 48 h, 20 µL CellTiter-Glo (G7573, Promega, Fitchburg, WI, USA) was added to each well containing cells and the contents were mixed for 2 min on an orbital shaker to induce cell lysis. The plates were then incubated at room temperature for 20 min to stabilize the luminescent signal. The luminescence was recorded on an Envision 2014 (Perkin Elmer, Waltham, MA, UAS). The IC50 values represented the samples’ concentrations required to inhibit 50% of cell proliferation and were calculated from a calibration curve by linear regression using GraphPad Prism 7.0 software (GraphPad Software, San Diego, CA, USA).
compound,measurement,setting,value
"Cc1cc(O)c2c(c1)C(=O)c1cc(OCCCOC(=O)[C@@H](C)N)cc(O)c1C2=O.O=C(O)C(F)(F)F [Compound 7a, (R)-1-(3-(4,5-Dihydroxy-7-methyl-9,10-dioxo-9,10-dihydroanthracen-2-yloxy)propoxy)-1-oxopropan-2-aminium 2,2,2-trifluoroacetate]","Apoptosis percentage, Early apoptosis","HepG2 cells [1]; HepG2, 2.5 μM",2.91 ± 0.45%
same,"Apoptosis percentage, Late apoptosis","HepG2 cells [1]; HepG2, 2.5 μM",3.69 ± 0.48%
same,"Apoptosis percentage, Overall apoptosis","HepG2 cells [1]; HepG2, 2.5 μM",6.59 ± 0.93%
same,percentage of apoptotic cells,"HepG2 cells [1]; HepG2, 5 μM, 48 h",22.2%
same,"Apoptosis percentage, Early apoptosis","HepG2 cells [1]; HepG2, 5 μM",15.93 ± 0.76%
same,"Apoptosis percentage, Late apoptosis","HepG2 cells [1]; HepG2, 5 μM",7.51 ± 0.68%
same,"Apoptosis percentage, Overall apoptosis","HepG2 cells [1]; HepG2, 5 μM",23.450 ± 1.07%
same,percentage of apoptotic cells,"HepG2 cells [1]; HepG2, 10 μM, 48 h",50.7%
same,"Apoptosis percentage, Early apoptosis","HepG2 cells [1]; HepG2, 10 μM",37.73 ± 0.97%
same,"Apoptosis percentage, Late apoptosis","HepG2 cells [1]; HepG2, 10 μM",14.63 ± 1.17%
same,"Apoptosis percentage, Overall apoptosis","HepG2 cells [1]; HepG2, 10 μM",52.00 ± 1.41%
same,viability at 2.5 µM,"HepG2 cells [1]; Homo sapiens, HepG2, 2.5 μM, 48 h, representative plot, read-out: Q4 (Annexin V−/PI−, viable cells)",93.3%
same,viability at 5 µM,"HepG2 cells [1]; Homo sapiens, HepG2, 5.0 μM, 48 h, representative plot, read-out: Q4 (Annexin V−/PI−, viable cells)",74.2%
same,viability at 10 µM,"HepG2 cells [1]; Homo sapiens, HepG2, 10 μM, 48 h, representative plot, read-out: Q4 (Annexin V−/PI−, viable cells)",46.9%
same,"Relative expression level, Bcl-2","Bcl-2; HepG2, 2.5 μM",0.685 ± 0.025
same,"Relative expression level, Bcl-2","Bcl-2; HepG2, 5 μM",0.312 ± 0.012
same,"Relative expression level, Bcl-2","Bcl-2; HepG2, 10 μM",0.268 ± 0.022
same,IC50,"L02 cells; Homo sapiens, L02, human normal liver L02 cells",14 ± 0.27 µM
same,IC50,L02 cells; human normal liver L02 cells,18.5 ± 0.19 µM
same,"Relative expression level, cytochrome c","cytochrome c; HepG2, 2.5 μM",1.407 ± 0.015
same,"Relative expression level, cytochrome c","cytochrome c; HepG2, 5 μM",1.663 ± 0.110
same,"Relative expression level, cytochrome c","cytochrome c; HepG2, 10 μM",2.220 ± 0.387
same,"Relative expression level, procaspase-9","procaspase-9; HepG2, 2.5 μM",0.600 ± 0.082
same,"Relative expression level, procaspase-9","procaspase-9; HepG2, 5 μM",0.297 ± 0.058
same,"Relative expression level, procaspase-9","procaspase-9; HepG2, 10 μM",0.223 ± 0.029
same,IC50,HepG2 cells [2]; HepG2 cells,6.47 ± 0.21 µM
same,enhancement of anti-proliferative activity compared to emodin,"HepG2 cells [2]; HepG2 cells, IC50 ratio to parent compound emodin",8.8 fold
same,IC50,"HepG2 cells [2]; Homo sapiens, HepG2, 48 h, HepG2 cells",4.95 ± 0.14 µM
same,Selectivity Index HepG2,HepG2 cells [2]; IC50 on normal cells (L02)/IC50 on cancer cells (HepG2),2.82
